Results published in patent US20250134889A1, “TARGETING IRE1 KINASE AND FMRP FOR PROPHYLAXIS, MANAGEMENT AND TREATMENT OF ATHEROSCLEROSIS” (CEDARS-SINAI MEDICAL CENTER, priority 2022, published 2025).

Key:
macrophages = experiment: Cholesterol uptake in macrophages (fluorescently labeled cholesterol); type: cell-based, mouse; conditions: AMG-18 10 μM 1 hour pre-treatment, labeled cholesterol 4 hours
[1] = tested on: atherosclerosis in Apoe-/- mice; experiment: Atherosclerosis in Apoe-/- mice fed WD; type: in vivo, mouse
Experimental: FIGS. 6A-6J depict that IRE1 kinase inhibition alleviates atherosclerosis. (Data are mean±SEM; Mann Whitney U test. * P≤0.05, ** P≤0.01, *** P≤0.001.) • 6A. Atherosclerosis experiment design in Apoe^−/− mice were fed with WD (12 weeks) and injected with vehicle (DMSO) or AMG-18 (30 mg/kg) once a day in the last 4 weeks of WD. • 6B. Lesion area calculated from en face aorta, stained with ORO (n=5; Scale bar=5 mm). • 6C. Total plaque area was calculated from H&E-stained aortic root sections (n=5; Scale bar=300 μm). • 6D. Foam cell area was calculated from ORO-stained aortic root sections (n=5; Scale bar=300 μm). • 6E. Necrotic area was calculated from H&E-stained aortic root sections (n=5; Scale bar=100 μm). • 6F. Atherosclerosis experiment design in Apoe^−/− mice were fed with WD (12 weeks) and injected with vehicle (DMSO) or AMG-18 (30 mg/kg) twice a day in the last 4 weeks of WD. • 6G. Lesion area calculated from en face aorta, stained with ORO (n=6; Scale bar=5 mm). • 6H. Total plaque area was calculated from H&E-stained aortic root sections (n=5; Scale bar=300 μm). • 6I. Foam cell area was calculated from ORO-stained aortic root sections (n=5; Scale bar=300 μm). • 6J. Necrotic area was calculated from H&E-stained aortic root sections (n=5; Scale bar=100 μm).
FIGS. 6K-6T depict: (Data are mean±SEM; Mann Whitney U test. * P≤0.05, ** P≤0.01, *** P≤0.001.) • 6K. The ratio of mouse weight at the beginning of the experiment over the weight at the end of the experiment in FIG. 6A (n=5). • 6L-6N. Plasma measurements for (6L) glucose (n=5) and (6M) cholesterol (n=5) from mice in FIG. 6A. (6N) Abundance of B cells, T cells and monocytes in the peripheral blood as % of total CD45+ cells from the vehicle (DMSO) or AMG-18 (30 mg/kg) once a day injected mice in FIG. 6A (n=5). • 6O. Protein lysates of liver from mice in FIG. 6A. Proteins were analyzed by western blotting using specific antibodies for pIRE1 and β-Actin (n=5). • 6P. The ratio of mouse weight at the beginning of the experiment over the weight at the end of the experiment in FIG. 6F (n=6). • 6Q-6R. Plasma measurements for (6Q) glucose (n=6) and (6R) cholesterol (n=6) from FIG. 6F. • 6S-6T. Protein lysates of (6S) thioglycolate-elicited PM and (6T) liver from mice in FIG. 6F. Proteins were analyzed by western blotting using specific antibodies for pIRE1 and β-Actin (n=6).
Mice studies and treatments: C57BL/6 (WT, Fmr1^+/+), Fmr1^−/− and Apolipoprotein E-deficient (Apoe^−/−) mice were purchased from Jackson Laboratory. IRE1 conditional knock out (Ire1α^flox/flox) mice were a kind gift from Dr. Takao Iwawaki (Kanazawa Medical University, Japan) and characterized before (Iwawaki et al, 2009). […] Fmr1 conditional knock out (Fmr1^flox/flox) mice were a kind gift from dr. David Nelson. Fmr1^flox/flox mice were inter-crossed with LysM^cre mice purchased from Jackson Lab (004781) to obtain myeloid Fmr1-deficient (myFmr1^−/−) mice. Starting at 8 weeks of age, Fmr1^−/−, Fmr1^−/−, myFmr1/or myFmr1^−/− mice were injected with 1×10^10 AAV_PCSK9 (AAV8-D377Y-mPCSK9, Vector BiolabsAAV-268246) via tail vein, then fed with normal chow or high cholesterol/high fat atherosclerotic mouse diet from Envigo (TD.88137) for 6 to 16 weeks. Apoe^−/− mice were fed with WD (12 weeks) and intraperitoneally injected with vehicle (DMSO) or AMG-18 (30 mg/kg) once or twice a day in the last 4 weeks of WD. C57BL/6 were injected with Tunicamycin (TM, 1 mg/kg) and with AMG-18 (30 mg/kg) or vehicle (DMSO) in 20% vol/vol Cremophor EL saline solution. 8 hours later peritoneal macrophages were isolated by thioglycolate elicitation for further analysis. Mice were kept under specific pathogen-free conditions with food and water ad libititum. Both female and male mice were used for experiments. […]

[2] = 30 mg/kg once daily, last 4 weeks of 12 weeks WD
[3] = 30 mg/kg twice daily, last 4 weeks of 12 weeks WD

Compound: Cc1ccc2c(NS(=O)(=O)c3ccccc3Cl)cccc2c1Oc1ncccc1-c1ccnc(N[C@H]2CCCNC2)n1 [AMG-18]
- cholesterol uptake (macrophages): neither FMRP knock down nor IRE1 kinase inhibition altered
- aortic root lesion area [1, 2]: not different
- atherosclerotic lesions in en face aorta preparations [1, 2]: decrease
- body weight [1, 2]: no significant differences
- foam cell area [1, 2]: significantly decreased
- necrotic core area [1, 2]: significantly decreased
- number of circulating immune cells [1, 2]: no significant differences
- IRE1 autophosphorylation (target engagement) ([1]; 30 mg/kg once daily, liver lysates): reduced
- aortic root lesion area [1, 3]: did not alter
- atherosclerotic lesions in en face aorta preparations [1, 3]: significant decrease
- body weight ratio [1, 3]: decrease
- foam cell area [1, 3]: significantly decreased
- necrotic core area [1, 3]: significantly decreased
- IRE1 autophosphorylation (target engagement) ([1]; 30 mg/kg twice daily, PM and liver lysates): reduced
